Results published in patent US10654917B2, “Antibody molecules and peptide delivery systems for use in alzheimer's disease and related disorders” (TECHNOPHAGE, INVESTIGAÇĀO E DESENVOLVIMENTO EM …, priority 2015, dated 2020).
Where two headings read alike, the source gives them in different places. Residues, ends and D or L forms follow the SMILES beside them. *: point of attachment. X1 = Cc1nn(CCN(CCN)CCCC(=O)*)c(C)c1CC(=O)O

Key:
[1] = Partition coefficient (log Po/w) of radiopeptides; type: physicochemical
Description: Table 7 lists each peptide's name, isoelectric point (PI), charge (number of positive residues), calculated mass (in Da), and ion found; as well as the name, calculated mass, and found ion for the corresponding conjugate; and also retention times in HPLC and the partition coefficient (log Po/w). These values allowed the determination of the hydrophilic nature of peptides, where pepH1 and pepH4 were identified as the most hydrophilic peptides.

[2] = Biodistribution of technetium-labelled peptides; type: in vivo, CD1 mice
Experimental: To evaluate the capacity to cross the BBB in vivo, the selected peptides, pepH1 and pepH3, were analyzed for biodistribution in CD1 mice. The peptides were labelled with technetium at a final concentration of 8.5×10^−5 M and diluted in PBS. CD1 mice were injected (iv injection, tail vein). The mice were sacrificed by cervical dislocation after 5 and 60 minutes of incubation. The tissues of interest were dissected and washed to remove excess blood, weighed, and measured for radioactivity. Technetium radioactivity of the different peptides was measured for different organs.
Initial results are presented in Table 11, where “% I.A. refers to the “% injected activity”, that is, the amount of radioactivity measured in a given organ compared to the total originally injected.
The biodistribution studies were repeated, using higher doses of each peptide, specifically, a one hundred fold increase, as well as using PepH2 as a negative control, and allowing incubation for 2 minutes and 60 minutes. Tissue biodistribution profile in percentage of injected radiopeptide activity per gram of tissue/organ was measured and results are presented in Table 12.

Compound: Cc1nn(CCN(CCN)CCCC(=O)N[C@H](C(=O)N[C@@H](CCC(N)=O)C(=O)N[C@@H](CCC(N)=O)C(=O)N[C@@H](CC(C)C)C(=O)N[C@H](C(=O)N[C@@H](CCCCN)C(=O)N[C@@H](CCCNC(=N)N)C(=O)N[C@@H](Cc2ccccc2)C(=O)N[C@@H](CO)C(=O)N[C@@H](CC(C)C)C(=O)O)[C@@H](C)O)C(C)C)c(C)c1CC(=O)O [^99mTc(CO)3-Pz^1-pepH1, metal not drawn] (X1-VQQLTKRFSL-OH; C-terminus assumed)
- log Po/w of radiopeptides [1]: −1.76 ± 0.11
- injected activity in Blood ([2]; 140 μg/mouse, 1 hour): 1.0 ± 0.2 % I.A./g
- injected activity in Bone ([2]; 140 μg/mouse, 1 hour): 0.16 ± 0.01 % I.A./g
- injected activity in Brain ([2]; 140 μg/mouse, 1 hour): 0.03 ± 0.00 % I.A./g
- injected activity in Heart ([2]; 140 μg/mouse, 1 hour): 0.39 ± 0.02 % I.A./g
- injected activity in Intestine ([2]; 140 μg/mouse, 1 hour): 13.0 ± 2.0 % I.A./g
- injected activity in Kidney ([2]; 140 μg/mouse, 1 hour): 1.6 ± 0.3 % I.A./g
- injected activity in Liver ([2]; 140 μg/mouse, 1 hour): 2.4 ± 1.0 % I.A./g
- injected activity in Lung ([2]; 140 μg/mouse, 1 hour): 1.4 ± 0.3 % I.A./g
- injected activity in Muscle ([2]; 140 μg/mouse, 1 hour): 0.2 ± 0.0 % I.A./g
- injected activity in Spleen ([2]; 140 μg/mouse, 1 hour): 0.22 ± 0.01 % I.A./g
- injected activity in Stomach ([2]; 140 μg/mouse, 1 hour): 0.31 ± 0.08 % I.A./g
- tissue uptake at 2 min ([2]; CD1, blood, iv, 140 ug/mouse, total radioactivity, 140 μg/mouse, 2 min, read-out: injected activity in Blood): 3.1 ± 0.5 %ID/g
- tissue uptake at 2 min ([2]; CD1, bone, iv, 140 ug/mouse, total radioactivity, 140 μg/mouse, 2 min, read-out: injected activity in Bone): 0.6 ± 0.2 %ID/g
- tissue uptake at 2 min ([2]; CD1, brain, iv, 140 ug/mouse, total radioactivity, 140 μg/mouse, 2 min, read-out: injected activity in Brain): 0.11 ± 0.02 %ID/g
- tissue uptake at 2 min ([2]; CD1, heart, iv, 140 ug/mouse, total radioactivity, 140 μg/mouse, 2 min, read-out: injected activity in Heart): 1.1 ± 0.4 %ID/g
- dose excreted at 2 min ([2]; CD1, in vivo, iv, 140 ug/mouse, total radioactivity, 140 μg/mouse, 2 min, read-out: Excretion): 17.1 ± 7.9%
- dose excreted at 1 h ([2]; CD1, in vivo, iv, 140 ug/mouse, total radioactivity, 140 μg/mouse, 1 hour, read-out: Excretion): 32.7 ± 0.2%
- tissue uptake at 2 min ([2]; CD1, intestine, iv, 140 ug/mouse, total radioactivity, 140 μg/mouse, 2 min, read-out: injected activity in Intestine): 3.8 ± 2.3 %ID/g
- tissue uptake at 2 min ([2]; CD1, kidney, iv, 140 ug/mouse, total radioactivity, 140 μg/mouse, 2 min, read-out: injected activity in Kidney): 14.6 ± 8.2 %ID/g
- tissue uptake at 2 min ([2]; CD1, liver, iv, 140 ug/mouse, total radioactivity, 140 μg/mouse, 2 min, read-out: injected activity in Liver): 7 ± 1.1 %ID/g
- tissue uptake at 2 min ([2]; CD1, lung, iv, 140 ug/mouse, total radioactivity, 140 μg/mouse, 2 min, read-out: injected activity in Lung): 2.6 ± 0.5 %ID/g
- tissue uptake at 2 min ([2]; CD1, muscle, iv, 140 ug/mouse, total radioactivity, 140 μg/mouse, 2 min, read-out: injected activity in Muscle): 0.6 ± 0.2 %ID/g
- tissue uptake at 2 min ([2]; CD1, spleen, iv, 140 ug/mouse, total radioactivity, 140 μg/mouse, 2 min, read-out: injected activity in Spleen): 0.7 ± 0.2 %ID/g
- tissue uptake at 2 min ([2]; CD1, stomach, iv, 140 ug/mouse, total radioactivity, 140 μg/mouse, 2 min, read-out: injected activity in Stomach): 0.7 ± 0.4 %ID/g
- tissue uptake at 5 min ([2]; mouse, blood, 10 ug, total radioactivity, CD1 mice, iv, 5 min, 10 μg, read-out: injected activity in Blood): 3.1 ± 0.5 %ID/g
- tissue uptake at 1 h ([2]; mouse, blood, 10 ug, total radioactivity, CD1 mice, iv, 1 hour, 10 μg, read-out: injected activity in Blood): 1 ± 0.2 %ID/g
- tissue uptake at 5 min ([2]; mouse, bone, 10 ug, total radioactivity, CD1 mice, iv, 5 min, 10 μg, read-out: injected activity in Bone): 0.6 ± 0.2 %ID/g
- tissue uptake at 1 h ([2]; mouse, bone, 10 ug, total radioactivity, CD1 mice, iv, 1 hour, 10 μg, read-out: injected activity in Bone): 0.16 ± 0.01 %ID/g
- tissue uptake at 5 min ([2]; mouse, brain, 10 ug, total radioactivity, CD1 mice, iv, 5 min, 10 μg, read-out: injected activity in Brain): 0.11 ± 0.02 %ID/g
- tissue uptake at 1 h ([2]; mouse, brain, 10 ug, total radioactivity, CD1 mice, iv, 1 hour, 10 μg, read-out: injected activity in Brain): 0.03 %ID/g
- tissue uptake at 5 min ([2]; mouse, heart, 10 ug, total radioactivity, CD1 mice, iv, 5 min, 10 μg, read-out: injected activity in Heart): 1.1 ± 0.4 %ID/g
- tissue uptake at 1 h ([2]; mouse, heart, 10 ug, total radioactivity, CD1 mice, iv, 1 hour, 10 μg, read-out: injected activity in Heart): 0.39 ± 0.02 %ID/g
- percent of injected dose excreted at 5 min ([2]; mouse, in vivo, 10 ug, total radioactivity, CD1 mice, iv, 5 min, 10 μg, read-out: Excretion): 17.1 ± 7.9 %ID
- percent of injected dose excreted at 1 h ([2]; mouse, in vivo, 10 ug, total radioactivity, CD1 mice, iv, 1 hour, 10 μg, read-out: Excretion): 32.7 ± 0.2 %ID
- tissue uptake at 5 min ([2]; mouse, intestine, 10 ug, total radioactivity, CD1 mice, iv, 5 min, 10 μg, read-out: injected activity in Intestine): 3.8 ± 2.3 %ID/g
- tissue uptake at 1 h ([2]; mouse, intestine, 10 ug, total radioactivity, CD1 mice, iv, 1 hour, 10 μg, read-out: injected activity in Intestine): 13 ± 2 %ID/g
- tissue uptake at 5 min ([2]; mouse, kidney, 10 ug, total radioactivity, CD1 mice, iv, 5 min, 10 μg, read-out: injected activity in Kidney): 14.6 ± 8.2 %ID/g
- tissue uptake at 1 h ([2]; mouse, kidney, 10 ug, total radioactivity, CD1 mice, iv, 1 hour, 10 μg, read-out: injected activity in Kidney): 1.6 ± 0.3 %ID/g
- tissue uptake at 5 min ([2]; mouse, liver, 10 ug, total radioactivity, CD1 mice, iv, 5 min, 10 μg, read-out: injected activity in Liver): 7 ± 1.1 %ID/g
- tissue uptake at 1 h ([2]; mouse, liver, 10 ug, total radioactivity, CD1 mice, iv, 1 hour, 10 μg, read-out: injected activity in Liver): 2.4 ± 1 %ID/g
- tissue uptake at 5 min ([2]; mouse, lung, 10 ug, total radioactivity, CD1 mice, iv, 5 min, 10 μg, read-out: injected activity in Lung): 2.6 ± 0.5 %ID/g
- tissue uptake at 1 h ([2]; mouse, lung, 10 ug, total radioactivity, CD1 mice, iv, 1 hour, 10 μg, read-out: injected activity in Lung): 1.4 ± 0.3 %ID/g
- tissue uptake at 5 min ([2]; mouse, muscle, 10 ug, total radioactivity, CD1 mice, iv, 5 min, 10 μg, read-out: injected activity in Muscle): 0.6 ± 0.2 %ID/g
- tissue uptake at 1 h ([2]; mouse, muscle, 10 ug, total radioactivity, CD1 mice, iv, 1 hour, 10 μg, read-out: injected activity in Muscle): 0.2 %ID/g
- tissue uptake at 5 min ([2]; mouse, pancreas, 10 ug, total radioactivity, CD1 mice, iv, 5 min, 10 μg, read-out: injected activity in Pancreas): 0.8 ± 0.2 %ID/g
- tissue uptake at 1 h ([2]; mouse, pancreas, 10 ug, total radioactivity, CD1 mice, iv, 1 hour, 10 μg, read-out: injected activity in Pancreas): 0.41 ± 0.01 %ID/g
- tissue uptake at 5 min ([2]; mouse, spleen, 10 ug, total radioactivity, CD1 mice, iv, 5 min, 10 μg, read-out: injected activity in Spleen): 0.7 ± 0.2 %ID/g
- tissue uptake at 1 h ([2]; mouse, spleen, 10 ug, total radioactivity, CD1 mice, iv, 1 hour, 10 μg, read-out: injected activity in Spleen): 0.22 ± 0.01 %ID/g
- tissue uptake at 5 min ([2]; mouse, stomach, 10 ug, total radioactivity, CD1 mice, iv, 5 min, 10 μg, read-out: injected activity in Stomach): 0.7 ± 0.4 %ID/g
- tissue uptake at 1 h ([2]; mouse, stomach, 10 ug, total radioactivity, CD1 mice, iv, 1 hour, 10 μg, read-out: injected activity in Stomach): 0.31 ± 0.08 %ID/g
